Experiment: Evaluation of conversion rate to active form in buffer solution (Experimental Example 1)
Assay type: physicochemical
Settings: for Production rate of Alvocidib / Residual rate: 37° C., 25 umol/L in buffer solution; for Stability in buffer solution at pH 5: pH 5, 37° C., up to 2 or 3 hours; for Conversion to Alvocidib at pH 7.4: pH 7.4, 37° C., up to 3 hours
How it was run: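 Conversion to Alvocidib and loss of parent were followed by HPLC over 3 h (samples at 0, 0.5, 1, 2, 3 h). Incubations used 25 umol/L compound at 37 °C across pH 5.0–7.4, in 50 mM citrate below pH 6.0 and 50 mM phosphate from pH 6.0 upward.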

Compound: CN1CC[C@H](c2c(OC(=O)N(Cc3ccccc3)CC3CCCCN3)cc(O)c3c(=O)cc(-c4ccccc4Cl)oc23)[C@H](O)C1 (stereo partly drawn) [Example 15, 2-(2-chlorophenyl)-5-hydroxy-8-[(3S,4R)-3-hydroxy-1-methylpiperidin-4-yl]-4-oxo-4H-1-benzopyran-7-yl benzyl [(piperidin-2-yl)methyl]carbamate]
- Production rate of Alvocidib (pH5.0, 0 hr): 1.4%
- Residual rate (pH5.0, 0 hr): 95.6%
- Stability in buffer solution at pH 5: stable
- Production rate of Alvocidib (pH5.0, 0.5 hr): 1.9%
- Residual rate (pH5.0, 0.5 hr): 95.2%
- Production rate of Alvocidib (pH5.0, 1 hr): 2.6%
- Residual rate (pH5.0, 1 hr): 94.7%
- Production rate of Alvocidib (pH5.0, 2 hr): 3.8%
- Residual rate (pH5.0, 2 hr): 93.5%
- Production rate of Alvocidib (pH5.0, 3 hr): 4.6%
- Residual rate (pH5.0, 3 hr): 92.5%
- Production rate of Alvocidib (pH5.5, 0 hr): 1.4%
- Residual rate (pH5.5, 0 hr): 95.6%
- Production rate of Alvocidib (pH5.5, 0.5 hr): 2.8%
- Residual rate (pH5.5, 0.5 hr): 94.2%
- Production rate of Alvocidib (pH5.5, 1 hr): 4.5%
- Residual rate (pH5.5, 1 hr): 92.7%
- Production rate of Alvocidib (pH5.5, 2 hr): 7.8%
- Residual rate (pH5.5, 2 hr): 89.5%
- Production rate of Alvocidib (pH5.5, 3 hr): 9.5%
- Residual rate (pH5.5, 3 hr): 87.8%
- Production rate of Alvocidib (pH6.0, 0 hr): 1.5%
- Residual rate (pH6.0, 0 hr): 95.5%
- Production rate of Alvocidib (pH6.0, 0.5 hr): 6.2%
- Residual rate (pH6.0, 0.5 hr): 91.0%
- Production rate of Alvocidib (pH6.0, 1 hr): 12.4%
- Residual rate (pH6.0, 1 hr): 84.7%
- Production rate of Alvocidib (pH6.0, 2 hr): 22.3%
- Residual rate (pH6.0, 2 hr): 62.8%
- Production rate of Alvocidib (pH6.0, 3 hr): 25.7%
- Residual rate (pH6.0, 3 hr): 56.7%
- Production rate of Alvocidib (pH6.5, 0 hr): 1.9%
- Residual rate (pH6.5, 0 hr): 94.8%
- Production rate of Alvocidib (pH6.5, 0.5 hr): 15.1%
- Residual rate (pH6.5, 0.5 hr): 82.2%
- Production rate of Alvocidib (pH6.5, 1 hr): 26.1%
- Residual rate (pH6.5, 1 hr): 56.3%
- Production rate of Alvocidib (pH6.5, 2 hr): 44.6%
- Residual rate (pH6.5, 2 hr): 32.9%
- Production rate of Alvocidib (pH6.5, 3 hr): 52.4%
- Residual rate (pH6.5, 3 hr): 24.3%
- Production rate of Alvocidib (pH7.0, 0 hr): 2.8%
- Residual rate (pH7.0, 0 hr): 94.1%
- Production rate of Alvocidib (pH7.0, 0.5 hr): 40.7%
- Residual rate (pH7.0, 0.5 hr): 38.5%
- Production rate of Alvocidib (pH7.0, 1 hr): 56.9%
- Residual rate (pH7.0, 1 hr): 7.1%
- Production rate of Alvocidib (pH7.0, 2 hr): 69.8%
- Residual rate (pH7.0, 2 hr): 3.8%
- Production rate of Alvocidib (pH7.0, 3 hr): 69.9%
- Residual rate (pH7.0, 3 hr): 3.9%
- Production rate of Alvocidib (pH7.4, 0 hr): 4.8%
- Residual rate (pH7.4, 0 hr): 92.2%
- Conversion to Alvocidib at pH 7.4: rapidly converted to Alvocidib
- Production rate of Alvocidib (pH7.4, 0.5 hr): 54.7%
- Residual rate (pH7.4, 0.5 hr): 21.1%
- Production rate of Alvocidib (pH7.4, 1 hr): 67.3%
- Residual rate (pH7.4, 1 hr): 8.0%
- Production rate of Alvocidib (pH7.4, 2 hr): 75.2%
- Residual rate (pH7.4, 2 hr): 3.1%
- Production rate of Alvocidib (pH7.4, 3 hr): 77.2%
- Residual rate (pH7.4, 3 hr): 2.9%

Compound: CCN(CCC1CCCCN1)C(=O)Oc1cc(O)c2c(=O)cc(-c3ccccc3Cl)oc2c1[C@H]1CCN(C)C[C@H]1O (stereo partly drawn) [Example 16, 2-(2-chlorophenyl)-5-hydroxy-8-[(3S,4R)-3-hydroxy-1-methylpiperidin-4-yl]-4-oxo-4H-1-benzopyran-7-yl ethyl[2-(piperidin-2-yl)ethyl]carbamate]
- Production rate of Alvocidib (pH5.0, 0 hr): 0.0%
- Residual rate (pH5.0, 0 hr): 84.3%
- Stability in buffer solution at pH 5: stable
- Production rate of Alvocidib (pH5.0, 0.5 hr): 0.0%
- Residual rate (pH5.0, 0.5 hr): 84.9%
- Production rate of Alvocidib (pH5.0, 1 hr): 0.0%
- Residual rate (pH5.0, 1 hr): 86.4%
- Production rate of Alvocidib (pH5.0, 2 hr): 0.0%
- Residual rate (pH5.0, 2 hr): 86.1%
- Production rate of Alvocidib (pH5.0, 3 hr): 0.0%
- Residual rate (pH5.0, 3 hr): 86.1%
- Production rate of Alvocidib (pH5.5, 0 hr): 0.0%
- Residual rate (pH5.5, 0 hr): 84.9%
- Production rate of Alvocidib (pH5.5, 0.5 hr): 0.0%
- Residual rate (pH5.5, 0.5 hr): 85.8%
- Production rate of Alvocidib (pH5.5, 1 hr): 0.0%
- Residual rate (pH5.5, 1 hr): 86.3%
- Production rate of Alvocidib (pH5.5, 2 hr): 0.0%
- Residual rate (pH5.5, 2 hr): 85.7%
- Production rate of Alvocidib (pH5.5, 3 hr): 0.0%
- Residual rate (pH5.5, 3 hr): 86.6%
- Production rate of Alvocidib (pH6.0, 0 hr): 0.0%
- Residual rate (pH6.0, 0 hr): 85.3%
- Production rate of Alvocidib (pH6.0, 0.5 hr): 0.0%
- Residual rate (pH6.0, 0.5 hr): 84.3%
- Production rate of Alvocidib (pH6.0, 1 hr): 12.8%
- Residual rate (pH6.0, 1 hr): 71.7%
- Production rate of Alvocidib (pH6.0, 2 hr): 21.6%
- Residual rate (pH6.0, 2 hr): 63.0%
- Production rate of Alvocidib (pH6.0, 3 hr): 29.3%
- Residual rate (pH6.0, 3 hr): 55.6%
- Production rate of Alvocidib (pH6.5, 0 hr): 0.0%
- Residual rate (pH6.5, 0 hr): 86.0%
- Production rate of Alvocidib (pH6.5, 0.5 hr): 16.4%
- Residual rate (pH6.5, 0.5 hr): 67.6%
- Production rate of Alvocidib (pH6.5, 1 hr): 25.3%
- Residual rate (pH6.5, 1 hr): 61.4%
- Production rate of Alvocidib (pH6.5, 2 hr): 47.1%
- Residual rate (pH6.5, 2 hr): 37.4%
- Production rate of Alvocidib (pH6.5, 3 hr): 51.5%
- Residual rate (pH6.5, 3 hr): 34.9%
- Production rate of Alvocidib (pH7.0, 0 hr): 0.0%
- Residual rate (pH7.0, 0 hr): 86.2%
- Production rate of Alvocidib (pH7.0, 0.5 hr): 30.5%
- Residual rate (pH7.0, 0.5 hr): 54.8%
- Production rate of Alvocidib (pH7.0, 1 hr): 50.2%
- Residual rate (pH7.0, 1 hr): 35.7%
- Production rate of Alvocidib (pH7.0, 2 hr): 68.6%
- Residual rate (pH7.0, 2 hr): 16.9%
- Production rate of Alvocidib (pH7.0, 3 hr): 78.2%
- Residual rate (pH7.0, 3 hr): 7.7%
- Production rate of Alvocidib (pH7.4, 0 hr): 0.9%
- Residual rate (pH7.4, 0 hr): 85.3%
- Conversion to Alvocidib at pH 7.4: rapidly converted to Alvocidib
- Production rate of Alvocidib (pH7.4, 0.5 hr): 59.0%
- Residual rate (pH7.4, 0.5 hr): 23.2%
- Production rate of Alvocidib (pH7.4, 1 hr): 77.8%
- Residual rate (pH7.4, 1 hr): 5.9%
- Production rate of Alvocidib (pH7.4, 2 hr): 82.1%
- Residual rate (pH7.4, 2 hr): 2.2%
- Production rate of Alvocidib (pH7.4, 3 hr): 85.8%
- Residual rate (pH7.4, 3 hr): 0.0%

Source: patent publication US12617779B2, “Self degradation-type CDK9 inhibitor prodrug and liposome encapsulating same” (Sumitomo Pharma Co., Ltd., priority 2021, dated 2026)
